CH4 permeability [Barrer]	CO2 permeability [Barrer]	H2 permeability [Barrer]	N2 permeability [Barrer]	O2 permeability [Barrer]	Structure (SMILES)
22400	32800	20700	9200	11400	*C(=C(*)c1ccc2c(c1)C(C)(C)CC2(C)C)c1ccc(Br)cc1 (repeat unit)
34300	47000	33300	15600	17900	*C(=C(*)c1ccc2c(c1)C(C)(C)CC2(C)C)c1ccc(F)cc1 (repeat unit)
29100	38700	24800	11600	14400	*C(=C(*)c1ccc2c(c1)C(C)(C)CC2(C)C)c1ccccc1 (repeat unit)
6600	11400	7700	2700	3900	*C(=C(*)c1ccc2c(c1)C(C)(C)CCC2(C)C)c1ccccc1 (repeat unit)
1.9	63	100	2.05	11	*c1c(C)c(C)c(N2C(=O)c3ccc(Oc4c(C)ccc(C)c4Oc4ccc5c(c4)C(=O)N(*)C5=O)cc3C2=O)c(C)c1C (repeat unit)
0.7	27	51	0.83	4.8	*c1c(C)c(C)c(N2C(=O)c3ccc(Oc4c(C)cccc4Oc4ccc5c(c4)C(=O)N(*)C5=O)cc3C2=O)c(C)c1C (repeat unit)
2.2	67	110	2.5	13	*c1c(C)c(C)c(N2C(=O)c3ccc(Oc4cc(C(C)(C)C)cc(C)c4Oc4ccc5c(c4)C(=O)N(*)C5=O)cc3C2=O)c(C)c1C (repeat unit)
3.1	71	91	2.55	12	*c1c(C)c(C)c(N2C(=O)c3ccc(Oc4cc(C(C)(C)C)ccc4Oc4ccc5c(c4)C(=O)N(*)C5=O)cc3C2=O)c(C)c1C (repeat unit)
0.47	20	41	0.59	3.5	*c1c(C)c(C)c(N2C(=O)c3ccc(Oc4cc(C)ccc4Oc4ccc5c(c4)C(=O)N(*)C5=O)cc3C2=O)c(C)c1C (repeat unit)
50.5	692	–	58.6	198	*c1c(C)c2c(c(N3C(=O)c4ccc(C(c5ccc6c(c5)C(=O)N(*)C6=O)(C(F)(F)F)C(F)(F)F)cc4C3=O)c1C)C(C)(C)CC2 (repeat unit)
15	360	350	16.5	67	*c1c(C)cc(-c2cc(C)c(-c3cc(C)c(*)c(C)c3)cc2C)cc1C (repeat unit)
215	2980	1310	130	432	*c1c(C)cc(-c2cc(C)c(-n3c(=O)c4cc5oc6cc7c(cc6oc5cc4c3=O)C3(CC(C)(C)c4cc5oc6cc8c(=O)n(*)c(=O)c8cc6oc5cc43)CC7(C)C)c3ccccc23)c2ccccc12 (repeat unit)
190	2910	2170	145	550	*c1c(C)cc(-c2cc(C)c(N3C(=O)c4cc5c(cc4C3=O)C3(C(C)C)c4ccccc4C5(C(C)C)c4cc5c(cc43)C(=O)N(*)C5=O)c3ccccc23)c2ccccc12 (repeat unit)
230	4300	3420	208	901	*c1c(C)cc(-c2cc(C)c(N3C(=O)c4cc5c(cc4C3=O)C3(C)CCC5(C)c4cc5c(cc43)C(=O)N(*)C5=O)c3ccccc23)c2ccccc12 (repeat unit)
187	3350	2740	158	696	*c1c(C)cc(-c2cc(C)c(N3C(=O)c4cc5c(cc4C3=O)C3(C)c4ccccc4C5(C)c4cc5c(cc43)C(=O)N(*)C5=O)c3ccccc23)c2ccccc12 (repeat unit)
0.818	22.4	–	0.913	4.73	*c1c(C)cc(Cc2cc(C)c(N3C(=O)c4ccc(-c5ccc6c(c5)C(=O)N(*)C6=O)cc4C3=O)c(C)c2)cc1C (repeat unit)
1.45	43.9	–	2.13	10.3	*c1c(C)cc(Cc2cc(C)c(N3C(=O)c4ccc(C(c5ccc6c(c5)C(=O)N(*)C6=O)(C(F)(F)F)C(F)(F)F)cc4C3=O)c(C)c2)cc1C (repeat unit)

CH4 permeability [Barrer]	CO2 permeability [Barrer]	H2 permeability [Barrer]	N2 permeability [Barrer]	O2 permeability [Barrer]	Structure (SMILES)
69	1310	1600	71	308	*c1c(C)cc2c(c1C)C1c3ccccc3C2c2cc(C)c(N3C(=O)C4C5C=CC(C6C(=O)N(*)C(=O)C56)C4C3=O)c(C)c21 (repeat unit)
122	1860	1480	97	390	*c1c(C)cc2c(c1C)C1c3ccccc3C2c2cc(C)c(N3C(=O)c4ccc5c6c(ccc(c46)C3=O)C(=O)N(*)C5=O)c(C)c21 (repeat unit)
0.565	35	83.5	1.2	7.45	*c1cc(C(c2ccc(O)c(N3C(=O)c4cc5c(cc4C3=O)C3(C)c4ccccc4C5(C)c4cc5c(cc43)C(=O)N(*)C5=O)c2)(C(F)(F)F)C(F)(F)F)ccc1O (repeat unit)
0.08	9.9	35	0.4	2.6	*c1cc(C(c2ccc(O)c(N3C(=O)c4ccc(C(c5ccc6c(c5)C(=O)N(*)C6=O)(C(F)(F)F)C(F)(F)F)cc4C3=O)c2)(C(F)(F)F)C(F)(F)F)ccc1O (repeat unit)
2.5	63	85	2.2	11	*c1cc(C)c(C)c(N2C(=O)c3ccc(Oc4cc(C(C)(C)C)ccc4Oc4ccc5c(c4)C(=O)N(*)C5=O)cc3C2=O)c1C (repeat unit)
0.57	22	41	0.65	3.9	*c1cc(C)c(C)c(N2C(=O)c3ccc(Oc4cc(C)ccc4Oc4ccc5c(c4)C(=O)N(*)C5=O)cc3C2=O)c1C (repeat unit)
0.349	17.9	–	0.499	3.53	*c1cc(C)c(N2C(=O)c3ccc(C(c4ccc5c(c4)C(=O)N(*)C5=O)(C(F)(F)F)C(F)(F)F)cc3C2=O)c(C)c1 (repeat unit)
0.59	24	–	0.7	–	*c1cc2c(cc1C)-c1cc(C)c(N3C(=O)c4cc5c(cc4C3=O)S(=O)(=O)c3cc4c(cc3S5(=O)=O)C(=O)N(*)C4=O)cc1S2(=O)=O (repeat unit)
0.037	2.74	–	0.0763	0.577	*c1cc2c(cc1C)-c1cc(C)c(N3C(=O)c4ccc(-c5ccc6c(c5)C(=O)N(*)C6=O)cc4C3=O)cc1S2(=O)=O (repeat unit)
4.6	130	206	5.5	23	*c1cc2c(cc1O)C1(CC2(C)C)CC(C)(C)c2cc(N3C(=O)C4C5C=CC(C6C(=O)N(*)C(=O)C56)C4C3=O)c(O)cc21 (repeat unit)
1.1	–	51	1.6	8.6	*c1ccc(-c2cc(C)c(-c3ccc(*)c(C)c3)cc2C)cc1C (repeat unit)
0.88	32	72	1.4	7.2	*c1ccc(-c2cc(C)c(-c3ccc(*)cc3C)cc2C)c(C)c1 (repeat unit)
20	420	300	16	64	*c1ccc(-c2ccc(-n3c(=O)c4cc5oc6cc7c(cc6oc5cc4c3=O)C3(CC(C)(C)c4cc5oc6cc8c(=O)n(*)c(=O)c8cc6oc5cc43)CC7(C)C)cc2C(F)(F)F)c(C(F)(F)F)c1 (repeat unit)
10	166	114	6.6	25	*c1ccc(-c2ccc(C(*)(c3ccccc3)C(F)(F)F)cc2)cc1 (repeat unit)
0.00041	0.0313	–	0.001	0.0096	*c1ccc(-c2ccc(N3C(=O)c4ccc(-c5ccc6c(c5)C(=O)N(*)C6=O)cc4C3=O)c(O)c2)cc1O (repeat unit)
1.01	53.9	–	1.71	10.2	*c1ccc(-c2ccc(Oc3ccc(C4(c5ccc(Oc6ccc(-c7ccc(N8C(=O)c9ccc(C(c%10ccc%11c(c%10)C(=O)N(*)C%11=O)(C(F)(F)F)C(F)(F)F)cc9C8=O)cc7)cc6C(F)(F)F)cc5)c5ccccc5C(=O)N4c4ccccc4)cc3)c(C(F)(F)F)c2)cc1 (repeat unit)
1.21	53	–	3.35	36.1	*c1ccc(-c2ccc(Oc3ccc4c(c3)C3(CC4(C)C)CC(C)(C)c4ccc(Oc5ccc(-c6ccc(N7C(=O)c8ccc(C(c9ccc%10c(c9)C(=O)N(*)C%10=O)(C(F)(F)F)C(F)(F)F)cc8C7=O)cc6)cc5C(F)(F)F)cc43)c(C(F)(F)F)c2)cc1 (repeat unit)

Structure (SMILES)	CH4 permeability [Barrer]	CO2 permeability [Barrer]	H2 permeability [Barrer]	N2 permeability [Barrer]	O2 permeability [Barrer]
*c1ccc(*)c(C(=O)c2ccccc2)c1 (repeat unit)	0.36	14.2	27.4	0.4	2.99
